Several values for one entry are separate records, joined by “and”; a condition that tells them apart may be missing. Identical values can stand only once. Inconclusive results and toxic doses are left out. Rule for the calls: active = survival T/C of 150% or more; inactive = T/C below 125% in these data.
System: CD2F1 mice, L1210 leukemia ip, survival T/C
Experiment: NCI In Vivo Anticancer Drug Screen. Data for tumor model L1210 Leukemia (intraperitoneal) in CD2F1 (CDF1) mice
Conditions: higher = longer survival
Procedure, shortened: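 Activity against a transplanted murine tumor was judged by comparing the compound group with a vehicle group. The outcome in the treated animals was divided by that in the controls.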

[1] = endpoint: mean survival time, dose: 100.0 mg/kg/injection, schedule: Q01DX001 (ip), vehicle: saline with Tween-80
[2] = endpoint: mean survival time, dose: 200.0 mg/kg/injection, schedule: Q01DX001 (ip), vehicle: saline with Tween-80
[3] = endpoint: mean survival time, dose: 400.0 mg/kg/injection, schedule: Q01DX001 (ip), vehicle: saline with Tween-80
[4] = endpoint: mean survival time, dose: 100.0 mg/kg/injection, schedule: Q04DX003 (ip), vehicle: saline with Tween-80
[5] = endpoint: mean survival time, dose: 200.0 mg/kg/injection, schedule: Q04DX003 (ip), vehicle: saline with Tween-80
[6] = endpoint: mean survival time, dose: 400.0 mg/kg/injection, schedule: Q04DX003 (ip), vehicle: saline with Tween-80
[7] = endpoint: mean survival time, dose: 50.0 mg/kg/injection, schedule: Q01DX009 (ip), vehicle: saline with Tween-80
[8] = endpoint: mean survival time, dose: 100.0 mg/kg/injection, schedule: Q01DX009 (ip), vehicle: saline with Tween-80

Measured: T/C

OC1CCCCC1CCl (centres undefined)
inactive: endpoint: mean survival time, dose: 50.0 mg/kg/injection, schedule: Q01DX001 (ip), vehicle: carboxymethylcellulose (CMC) 103 % of control | endpoint: mean survival time, dose: 100.0 mg/kg/injection, schedule: Q01DX001 (ip), vehicle: carboxymethylcellulose (CMC) 97 % of control | endpoint: mean survival time, dose: 200.0 mg/kg/injection, schedule: Q01DX001 (ip), vehicle: carboxymethylcellulose (CMC) 97 % of control | endpoint: mean survival time, dose: 400.0 mg/kg/injection, schedule: Q01DX001 (ip), vehicle: carboxymethylcellulose (CMC) 103 % of control

CCCCCCCCCCCC[N+]1(C)CCOCC1
inactive: endpoint: mean survival time, dose: 12.5 mg/kg/injection, schedule: Q01DX009 (ip), vehicle: Klucel (hydroxypropylcellulose) (HPC) 102 % of control | endpoint: mean survival time, dose: 25.0 mg/kg/injection, schedule: Q01DX009 (ip), vehicle: Klucel (hydroxypropylcellulose) (HPC) 98 % of control | endpoint: mean survival time, dose: 50.0 mg/kg/injection, schedule: Q01DX009 (ip), vehicle: Klucel (hydroxypropylcellulose) (HPC) 98 % of control

C=C1N(c2cc3ccccc3o2)C(=O)OC12CCCCC2
inactive: [1] 101 % of control | [2] 98 % of control | [3] 91 % of control

COC(=O)C1(C(=O)OC)CC1C(=O)c1ccccc1 (centres undefined)
inactive: [4] 98 % of control | [5] 98 % of control | [6] 95 % of control

CCCCCCCCCCCCCCCCN(C)C
inactive: endpoint: mean survival time, dose: 25.0 mg/kg/injection, schedule: Q04DX003 (ip), vehicle: saline with Tween-80 94 % of control | endpoint: mean survival time, dose: 50.0 mg/kg/injection, schedule: Q04DX003 (ip), vehicle: saline with Tween-80 95 % of control

CCCCCCCCCCCCCC[n+]1ccccc1
inactive: endpoint: mean survival time, dose: 0.07 mg/kg/injection, schedule: Q01DX009 (ip), vehicle: saline 93 % of control | endpoint: mean survival time, dose: 0.13 mg/kg/injection, schedule: Q01DX009 (ip), vehicle: saline 101 % of control | endpoint: mean survival time, dose: 0.25 mg/kg/injection, schedule: Q01DX009 (ip), vehicle: saline 103 % of control | endpoint: mean survival time, dose: 0.25 mg/kg/injection, schedule: Q04DX003 (ip), vehicle: saline sonified 102 % of control

CCCCCCCCCCCCCC[N+](C)(C)Cc1cc(=O)c(O)co1
inactive: endpoint: mean survival time, dose: 25.0 mg/kg/injection, schedule: Q04DX003 (ip), vehicle: Klucel (hydroxypropylcellulose) (HPC) 97 % of control | endpoint: mean survival time, dose: 50.0 mg/kg/injection, schedule: Q04DX003 (ip), vehicle: Klucel (hydroxypropylcellulose) (HPC) 109 % of control | endpoint: mean survival time, dose: 100.0 mg/kg/injection, schedule: Q04DX003 (ip), vehicle: Klucel (hydroxypropylcellulose) (HPC) 109 % of control | [4] 87 % of control

CCOC(=O)C1=C(N)CCCC1
inactive: endpoint: mean survival time, dose: 100.0 mg/kg/injection, schedule: Q01DX001 (ip), vehicle: Klucel (hydroxypropylcellulose) (HPC) 96 % of control | endpoint: mean survival time, dose: 200.0 mg/kg/injection, schedule: Q01DX001 (ip), vehicle: Klucel (hydroxypropylcellulose) (HPC) 122 % of control | endpoint: mean survival time, dose: 400.0 mg/kg/injection, schedule: Q01DX001 (ip), vehicle: Klucel (hydroxypropylcellulose) (HPC) 96 % of control

O=C1CSC(=O)N1
inactive: [4] 94 % of control | [5] 93 % of control | [6] 92 % of control

N#Cc1nc(C#N)c(Sc2ccccc2)c(Sc2ccccc2)c1Sc1ccccc1
inactive: endpoint: mean survival time, dose: 3.12 mg/kg/injection, schedule: Q01DX009 (ip), vehicle: saline with Tween-80 103 % of control and 104 % of control | endpoint: mean survival time, dose: 6.25 mg/kg/injection, schedule: Q01DX009 (ip), vehicle: saline with Tween-80 94 % of control and 100 % of control | endpoint: mean survival time, dose: 12.5 mg/kg/injection, schedule: Q01DX009 (ip), vehicle: saline with Tween-80 94 % of control | endpoint: mean survival time, dose: 25.0 mg/kg/injection, schedule: Q01DX009 (ip), vehicle: saline with Tween-80 96 % of control and 102 % of control | [7] 90 % of control and 102 % of control | [8] 96 % of control and 103 % of control

N#[N+]c1c(O)ccc2ccccc12
inactive: endpoint: mean survival time, dose: 100.0 mg/kg/injection, schedule: Q04DX002 (ip), vehicle: saline with Tween-80 107 % of control | endpoint: mean survival time, dose: 200.0 mg/kg/injection, schedule: Q04DX002 (ip), vehicle: saline with Tween-80 103 % of control | endpoint: mean survival time, dose: 400.0 mg/kg/injection, schedule: Q04DX002 (ip), vehicle: saline with Tween-80 100 % of control

C/C(=N\N=C(/[Se])N1CC2CCC(CC2)C1)c1ccccn1
inactive: endpoint: median survival time, dose: 0.75 mg/kg/injection, schedule: Q01DX009 (ip), vehicle: Klucel (hydroxypropylcellulose) (HPC) 101 % of control | endpoint: median survival time, dose: 1.5 mg/kg/injection, schedule: Q01DX009 (ip), vehicle: Klucel (hydroxypropylcellulose) (HPC) 103 % of control | endpoint: median survival time, dose: 1.56 mg/kg/injection, schedule: Q01DX009 (ip), vehicle: Klucel (hydroxypropylcellulose) (HPC) 93 % of control and 101 % of control | endpoint: median survival time, dose: 3.0 mg/kg/injection, schedule: Q01DX009 (ip), vehicle: Klucel (hydroxypropylcellulose) (HPC) 102 % of control | endpoint: median survival time, dose: 3.12 mg/kg/injection, schedule: Q01DX009 (ip), vehicle: Klucel (hydroxypropylcellulose) (HPC) 97 % of control and 110 % of control | endpoint: median survival time, dose: 6.0 mg/kg/injection, schedule: Q01DX009 (ip), vehicle: Klucel (hydroxypropylcellulose) (HPC) 104 % of control | endpoint: median survival time, dose: 6.25 mg/kg/injection, schedule: Q01DX009 (ip), vehicle: Klucel (hydroxypropylcellulose) (HPC) 86 % of control | endpoint: median survival time, dose: 12.0 mg/kg/injection, schedule: Q01DX009 (ip), vehicle: Klucel (hydroxypropylcellulose) (HPC) 102 % of control | endpoint: median survival time, dose: 12.5 mg/kg/injection, schedule: Q01DX009 (ip), vehicle: Klucel (hydroxypropylcellulose) (HPC) 109 % of control | endpoint: median survival time, dose: 25.0 mg/kg/injection, schedule: Q01DX009 (ip), vehicle: Klucel (hydroxypropylcellulose) (HPC) 89 % of control

NNC(=O)CCc1ccccc1Br
inactive: [7] 92 % of control and 102 % of control | [8] 102 % of control and 103 % of control | [4] 100 % of control | endpoint: mean survival time, dose: 200.0 mg/kg/injection, schedule: Q01DX009 (ip), vehicle: saline with Tween-80 93 % of control | [5] 97 % of control

NC1=CC(=O)C(c2ccccc2)C1=O (centres undefined)
inactive: [1] 100 % of control | [2] 92 % of control | [3] 92 % of control

O=c1[nH]cnc2nn(C3OC(CO)C(O)C3O)nc12 (centres undefined)
inactive: endpoint: median survival time, dose: 12.5 mg/kg/injection, schedule: Q01DX005 (ip), vehicle: saline 94 % of control | endpoint: median survival time, dose: 25.0 mg/kg/injection, schedule: Q01DX005 (ip), vehicle: saline 94 % of control | endpoint: median survival time, dose: 50.0 mg/kg/injection, schedule: Q01DX005 (ip), vehicle: saline 91 % of control | endpoint: median survival time, dose: 100.0 mg/kg/injection, schedule: Q01DX005 (ip), vehicle: saline 97 % of control and 103 % of control | endpoint: median survival time, dose: 200.0 mg/kg/injection, schedule: Q01DX005 (ip), vehicle: saline 101 % of control and 107 % of control | endpoint: median survival time, dose: 400.0 mg/kg/injection, schedule: Q01DX005 (ip), vehicle: saline 103 % of control

COc1nc(NC2OC(CO)C(O)C(O)C2O)c(Br)c(=O)n1C (centres undefined)
inactive: endpoint: median survival time, dose: 12.5 mg/kg/injection, schedule: Q01DX005 (ip), vehicle: saline with Tween-80 101 % of control | endpoint: median survival time, dose: 25.0 mg/kg/injection, schedule: Q01DX005 (ip), vehicle: saline with Tween-80 101 % of control | endpoint: median survival time, dose: 50.0 mg/kg/injection, schedule: Q01DX005 (ip), vehicle: saline with Tween-80 100 % of control | endpoint: median survival time, dose: 100.0 mg/kg/injection, schedule: Q01DX005 (ip), vehicle: saline with Tween-80 102 % of control | endpoint: median survival time, dose: 200.0 mg/kg/injection, schedule: Q01DX005 (ip), vehicle: saline with Tween-80 96 % of control

O=C1CC2OCCC3=CN4CCC56c7ccccc7N1C5C2C3CC46 (centres undefined)
inactive: endpoint: mean survival time, dose: 1.25 mg/kg/injection, schedule: Q01DX001 (ip), vehicle: other 116 % of control | endpoint: mean survival time, dose: 2.5 mg/kg/injection, schedule: Q01DX001 (ip), vehicle: other 108 % of control

Reference: PubChem BioAssay AID256 (DTP/NCI, 2004)
